Data taken from patent publication US10093656B2, “Fused-ring or tricyclic aryl pyrimidine compound used as kinase inhibitor” (NANJING SANHOME PHARMACEUTICAL CO., LTD, priority 2015, dated 2018).

Experiments:
EGFR wild type = target: T1, EGFR wild type (Homo sapiens, UniProt P00533); test: Wild-type EGFR enzyme HTRF inhibition assay; assay type: biochemical; conditions: 25 μM ATP, read-out: EGFR WT IC50
T1 construct: purchased Life technology (Madison, Wis.)
How it was run: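 HTRF with 0.05 nM wild-type EGFR, 1 μM biotin-TK1 peptide, 25 μM ATP, 60 min at 23° C; detected with Eu-anti-TK1 antibody 2 nM and XL665 62.5 nM, 60 min at 23° C. Ten 3-fold doses, 300 nM to 0.015 nM final; IC50 by four-parameter fit of % inhibition.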

EGFR T790M/L858R = target: T2, EGFR T790M/L858R (Homo sapiens, UniProt P00533, L858R/T790M); test: EGFR T790M/L858R enzyme HTRF inhibition assay; assay type: biochemical; conditions: 20 μM ATP, read-out: EGFR L858R/T79M IC50
T2 construct: purchased Life technology (Madison, Wis.)
T2 sequence (P00533 25-1210 T790M/L858R): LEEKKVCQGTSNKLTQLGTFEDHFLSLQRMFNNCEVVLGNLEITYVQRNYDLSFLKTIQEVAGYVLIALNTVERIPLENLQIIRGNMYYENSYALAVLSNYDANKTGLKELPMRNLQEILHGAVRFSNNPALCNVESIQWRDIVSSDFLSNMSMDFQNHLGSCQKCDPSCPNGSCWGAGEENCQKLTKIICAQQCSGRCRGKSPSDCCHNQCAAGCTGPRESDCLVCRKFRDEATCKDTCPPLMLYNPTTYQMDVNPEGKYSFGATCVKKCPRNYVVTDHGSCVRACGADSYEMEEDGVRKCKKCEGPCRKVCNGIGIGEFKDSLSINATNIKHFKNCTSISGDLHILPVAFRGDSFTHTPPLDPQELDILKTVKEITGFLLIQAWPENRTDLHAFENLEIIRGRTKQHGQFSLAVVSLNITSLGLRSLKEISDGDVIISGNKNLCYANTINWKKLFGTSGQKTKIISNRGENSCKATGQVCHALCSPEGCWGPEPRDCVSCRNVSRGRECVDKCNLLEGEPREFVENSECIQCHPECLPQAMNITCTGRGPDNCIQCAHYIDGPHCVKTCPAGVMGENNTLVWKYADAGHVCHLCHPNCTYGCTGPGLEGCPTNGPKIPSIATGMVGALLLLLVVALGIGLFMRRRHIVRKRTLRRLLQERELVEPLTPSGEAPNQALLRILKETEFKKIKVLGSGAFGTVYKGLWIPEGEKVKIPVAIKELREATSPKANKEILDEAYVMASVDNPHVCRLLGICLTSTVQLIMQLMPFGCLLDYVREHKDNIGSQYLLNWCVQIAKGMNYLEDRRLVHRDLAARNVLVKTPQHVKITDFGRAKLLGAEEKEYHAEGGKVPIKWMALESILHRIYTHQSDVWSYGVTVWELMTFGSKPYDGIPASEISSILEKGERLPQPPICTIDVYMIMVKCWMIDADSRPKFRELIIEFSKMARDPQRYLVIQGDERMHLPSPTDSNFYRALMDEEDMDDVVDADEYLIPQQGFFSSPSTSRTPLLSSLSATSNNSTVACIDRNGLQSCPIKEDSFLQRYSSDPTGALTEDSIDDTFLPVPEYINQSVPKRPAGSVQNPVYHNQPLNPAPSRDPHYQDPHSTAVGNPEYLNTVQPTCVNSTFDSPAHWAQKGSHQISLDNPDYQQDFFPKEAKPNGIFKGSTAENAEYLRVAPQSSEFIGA
How it was run: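 HTRF assay with 0.04 nM enzyme, 1 μM biotin-TK1 peptide and 20 μM ATP, 60 min at 23° C. Product detected with Eu-anti-TK1 antibody/XL665 (60 min at 23° C); compound at 10 doses, 300 nM to 0.015 nM final. IC50 from four-parameter fit.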

EGFR d746-750/T790M = target: T3, EGFR d746-750/T790M (Homo sapiens, UniProt P00533, DEL746-750/T790M); test: EGFR d746-750/T790M enzyme HTRF inhibition assay; assay type: biochemical; conditions: 40 μM ATP
T3 construct: purchased Carna Biosciences (Japan)
T3 sequence (P00533 with tags, fused parts or gaps DEL746-750/T790M limits assumed): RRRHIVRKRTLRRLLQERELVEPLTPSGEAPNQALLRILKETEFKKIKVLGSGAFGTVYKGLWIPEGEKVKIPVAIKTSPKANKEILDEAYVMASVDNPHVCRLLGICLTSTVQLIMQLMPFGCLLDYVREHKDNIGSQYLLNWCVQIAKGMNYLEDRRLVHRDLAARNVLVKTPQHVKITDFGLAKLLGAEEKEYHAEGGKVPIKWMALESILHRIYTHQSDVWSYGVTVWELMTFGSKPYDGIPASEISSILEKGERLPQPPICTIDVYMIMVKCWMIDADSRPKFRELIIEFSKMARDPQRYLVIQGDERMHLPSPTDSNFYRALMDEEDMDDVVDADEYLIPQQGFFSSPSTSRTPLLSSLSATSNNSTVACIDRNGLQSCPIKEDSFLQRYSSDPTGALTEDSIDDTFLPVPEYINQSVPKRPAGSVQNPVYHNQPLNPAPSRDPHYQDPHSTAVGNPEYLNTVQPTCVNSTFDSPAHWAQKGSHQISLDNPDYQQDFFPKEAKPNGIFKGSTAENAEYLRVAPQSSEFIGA
How it was run: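 0.025 nM enzyme with 1 μM biotin-TK1 peptide and 40 μM ATP, 60 min at 23° C; compound tested at 10 doses, 300 nM to 0.015 nM final. HTRF read (Eu-anti-TK1 antibody 2 nM, XL665 62.5 nM, 60 min at 23° C); IC50 from four-parameter fit of % inhibition.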

[1] = system: NCI-H1975 cells EGFR L858R/T790M; test: NCI-H1975 cell viability assay (Cell Titer-Glo, 6 days); assay type: cell-based; conditions: Homo sapiens, 144 h
How it was run: (§1)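 A431 (EGFR WT) and NCI-H1975 (EGFR L858R/T790M) cells treated for 6 days at 37° C, in duplicate with 10 three-fold doses from 10 μM to 0.508 nM final. Viability read as CellTiter-Glo luminescence. IC50 from four-parameter fit of % inhibition.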

A431 cells EGFR WT = test: A431 cell viability assay (Cell Titer-Glo, 6 days); assay type: cell-based, human
How it was run: as §1

[2] = system: human skin squamous cell A431 xenograft (CDX); test: Selectivity study in vivo, A431 xenograft (CDX) model; design: species or system BALB/c nude mice; conditions: Table 5 experiment, AZD9291 5 mg/kg
Protocol: In this model, the less inhibitory effect on the tumor, the better the selectivity in vivo.
The selective experiments in vivo were performed on BALB/c nude mice that subcutaneously implanted human skin squamous cell A431 xenograft (CDX).
BALB/c nude mice, female, 6-8 weeks, weighted about 18-20 grams, the mice were kept in a special pathogen-free environment and in a single ventilation cage (5 mice per cage). The bedding and water of all the cages were disinfected before use. All animals were free to obtain standard certified commercial laboratory diets. All mice were purchased from mice of Shanghai BK Laboratory Animal Co., LTD for research. The tumor tissue (20-30 mm^3) was implanted subcutaneously in the […] of each mouse for tumor growth. The experiment was started when the average tumor volume reached about 150-200 mm^3. The test compound was orally administered (compounds 17, 30, 37 and 38 were administered once daily at 20 mg/kg, the compound AZD9291 was administered once daily at 5 mg/kg, the compound CO-1686 was administered twice daily at 50 mg/kg, the compound Erlotinib was administered once daily at 75 mg/kg and the compound Afatinib was administered once daily at 7.5 mg/kg, 21 days of continuous administration. The data were shown in Table 4; compounds 33, 34, 40, 42 and 43 were administered once daily at 20 mg/kg and compound AZD9291 was administered once daily at5 mg/kg, 21 days of continuous administration. The tumor volume was measured twice a week with a two-dimensional caliper and the volume was measured in cubic millimeters and calculated by the following formula: V=V=0.5 a×b2, where a and b were the major and minor diameters of the tumor, respectively.

T1 sequence (P00533 25-1210): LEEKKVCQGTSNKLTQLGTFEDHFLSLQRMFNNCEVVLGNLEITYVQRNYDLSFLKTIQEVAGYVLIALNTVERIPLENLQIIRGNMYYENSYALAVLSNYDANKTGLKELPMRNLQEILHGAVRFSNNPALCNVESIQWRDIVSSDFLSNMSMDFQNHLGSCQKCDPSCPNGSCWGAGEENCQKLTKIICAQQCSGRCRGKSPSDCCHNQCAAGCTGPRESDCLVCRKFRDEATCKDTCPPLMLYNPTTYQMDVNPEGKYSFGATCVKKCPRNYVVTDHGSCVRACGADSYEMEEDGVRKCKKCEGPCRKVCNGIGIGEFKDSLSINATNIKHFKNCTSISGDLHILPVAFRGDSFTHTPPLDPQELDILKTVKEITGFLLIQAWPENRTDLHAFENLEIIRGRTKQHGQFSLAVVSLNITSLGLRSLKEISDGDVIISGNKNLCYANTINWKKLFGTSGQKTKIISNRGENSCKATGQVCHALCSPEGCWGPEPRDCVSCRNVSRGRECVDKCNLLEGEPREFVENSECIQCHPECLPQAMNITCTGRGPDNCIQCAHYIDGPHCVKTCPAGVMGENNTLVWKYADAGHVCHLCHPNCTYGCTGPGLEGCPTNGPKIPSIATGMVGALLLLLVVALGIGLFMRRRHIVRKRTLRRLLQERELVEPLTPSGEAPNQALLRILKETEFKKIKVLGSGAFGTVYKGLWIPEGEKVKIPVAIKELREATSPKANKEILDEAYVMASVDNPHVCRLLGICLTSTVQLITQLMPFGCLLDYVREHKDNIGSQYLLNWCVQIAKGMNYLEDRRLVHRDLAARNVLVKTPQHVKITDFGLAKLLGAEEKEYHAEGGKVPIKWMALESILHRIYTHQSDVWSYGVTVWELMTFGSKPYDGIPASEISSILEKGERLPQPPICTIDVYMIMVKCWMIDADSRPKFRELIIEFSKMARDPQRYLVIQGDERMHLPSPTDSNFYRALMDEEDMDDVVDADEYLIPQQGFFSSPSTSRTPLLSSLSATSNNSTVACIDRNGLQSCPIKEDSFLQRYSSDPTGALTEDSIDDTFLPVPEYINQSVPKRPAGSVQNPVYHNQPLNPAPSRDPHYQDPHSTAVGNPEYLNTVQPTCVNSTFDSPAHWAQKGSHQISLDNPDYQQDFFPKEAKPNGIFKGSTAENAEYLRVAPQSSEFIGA

IC50 (EGFR wild type): 2.6 nM
IC50 (EGFR T790M/L858R): 0.5 nM
IC50 (EGFR d746-750/T790M): 0.4 nM
IC50 [1]: 90 nM
IC50 (A431 cells EGFR WT; Homo sapiens, A-431, 144 h, A431 cells, 6 days): 693 nM
SMILES: C=CC(=O)Nc1cc(Nc2ncc(F)c(-c3c4n(c5cc(F)ccc35)CCOC4)n2)c(OC)cc1N(C)CCN(C)C [Embodiment 33, N-(2-((2-(Dimethylamino)ethyl)(methyl)amino)-5-((5-fluoro-4-(7-fluoro-3,4-dihydro-1H-[1,4]oxazino[4,3-a]indol-10-yl)pyrimidin-2-yl)amino)-4-methoxyphenyl)acrylamide]
A431:NCI-H1975 (ratio) (A431 cells EGFR WT; ratio of cell IC50 A431 to NCI-H1975): 7.7
Tumor Volume (mm^3) 4 days ([2]; day 4, oral once daily: 33, 34, 40, 42, 43 20 mg/kg): 202 mm^3
Tumor Volume (mm^3) 11 days ([2]; day 11, oral once daily: 33, 34, 40, 42, 43 20 mg/kg): 428 mm^3
Tumor Volume (mm^3) 18 days ([2]; day 18, oral once daily: 33, 34, 40, 42, 43 20 mg/kg): 930 mm^3
